According to publication PMC6079014, “Calcium is an essential cofactor for metal efflux by the ferroportin transporter family” (Nature Communications, 2018):
“And” between values parts separate entries of the source, which are not always exact repeats. Equal values may be shown once. Read-outs that look alike come from different tables or passages of the source.

What was measured:
[1] = target: wild type BbFpn (Bdellovibrio bacteriovorus, UniProt Q6MLJ0); assay: biochemical; type: binding, Bdellovibrio bacteriovorous
Chain of wild type BbFpn (Q6MLJ0 whole entry): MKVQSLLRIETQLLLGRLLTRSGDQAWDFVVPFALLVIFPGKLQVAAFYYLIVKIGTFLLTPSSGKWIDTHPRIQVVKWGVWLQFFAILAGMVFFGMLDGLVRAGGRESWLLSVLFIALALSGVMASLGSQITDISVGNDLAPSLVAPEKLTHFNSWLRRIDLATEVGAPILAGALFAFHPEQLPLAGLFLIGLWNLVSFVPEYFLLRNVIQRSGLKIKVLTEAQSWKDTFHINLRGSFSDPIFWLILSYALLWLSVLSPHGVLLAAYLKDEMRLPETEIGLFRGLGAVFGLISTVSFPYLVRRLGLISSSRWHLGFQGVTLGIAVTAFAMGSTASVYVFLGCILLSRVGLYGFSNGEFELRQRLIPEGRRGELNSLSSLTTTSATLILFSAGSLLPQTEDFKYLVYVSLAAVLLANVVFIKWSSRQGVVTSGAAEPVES

[2] = target: BbFpn Q84E (Bdellovibrio bacteriovorus, UniProt Q6MLJ0, Q84E); assay: Isothermal titration calorimetry, Q84E BbFpn; type: binding, Bdellovibrio bacteriovorous
Chain of BbFpn Q84E (Q6MLJ0 whole entry Q84E): as the sequence (Q6MLJ0 whole entry) above, with Q84E counted along it

[3] = target: T1, mouse Fpn (Fpn-C2) (Mus musculus, UniProt Q9JHI9, DEL251-290/DEL401-449); assay: Isothermal titration calorimetry, thermostabilized mouse Fpn construct Fpn-C2; type: binding
T1 construct: generated from full-length mouse Fpn (UniProt: Q9JHI9); GFP (C); made in house; host or cells: Sf9 insect cells (baculovirus)
T1 sequence (Q9JHI9 with tags, fused parts or gaps DEL251-290/DEL401-449): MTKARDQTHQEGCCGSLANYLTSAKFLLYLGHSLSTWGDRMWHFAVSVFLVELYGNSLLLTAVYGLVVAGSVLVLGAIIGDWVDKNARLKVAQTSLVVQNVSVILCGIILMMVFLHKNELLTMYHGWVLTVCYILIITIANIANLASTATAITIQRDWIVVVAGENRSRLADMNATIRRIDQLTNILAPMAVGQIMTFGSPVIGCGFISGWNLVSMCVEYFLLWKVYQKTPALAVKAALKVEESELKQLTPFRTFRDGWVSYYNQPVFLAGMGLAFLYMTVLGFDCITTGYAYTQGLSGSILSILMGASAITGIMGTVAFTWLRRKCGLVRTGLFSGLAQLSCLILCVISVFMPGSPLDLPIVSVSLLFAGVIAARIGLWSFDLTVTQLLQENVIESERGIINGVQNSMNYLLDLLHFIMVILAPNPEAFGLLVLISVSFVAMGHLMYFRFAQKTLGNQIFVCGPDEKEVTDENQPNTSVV
Source text: To obtain a purified mammalian Fpn protein conducive for biophysical studies, we generated a protein construct with an increased thermal stability (Deshpande et al., 2018). In brief, the construct (Fpn-C2) was generated from full-length mouse Fpn (UniProt: Q9JHI9 [https://www.uniprot.org/uniprot/Q9JHI9]) by deleting two-loop regions (residues 251–290 and 401–449), followed by an overlapping PCR incorporating the E219A mutation to generate Fpn-C2-E219A. The genes were subsequently cloned with a C-terminal GFP fusion into a baculovirus transfer vector (pFastBac1; Thermo Fisher Scientific) and the proteins were expressed using the Bac-to-Bac Baculovirus and Sf9 cells (Thermo Fisher Scientific) expression method according to the manufacturer’s protocol (Thermo Fisher Scientific). For large scale expression of the protein, 6L Sf9 cells (2 × 10^6 cells/ml) were infected with virus at an optimal multiplicity of infection (MOI) of 2.5 in Insect-XPRESS™ Protein-free Insect Cell Medium with L-glutamine (Lonza) and incubated at 27 °C with shaking at 130 rpm. The cells were spun down 48 h post-infection at 1500 × g for 10 min and the pellet stored at −20 °C until further use.
For Fpn-C2 and Fpn-C2-E219A purification (Deshpande et al., 2018), Sf9 cells were thawed at room temperature with the addition of 2 μl Benzonase (250 units/μL, Sigma-Aldrich), 1 mM MgSO4, 0.2 mM PMSF, and lysed by a single pass through cooled EmulsiFlex-C3 homogenizer (Avestin). All subsequent steps were performed at 4 °C. Membranes were harvested by centrifugation at 106,000 × g for 1 h, and pellets resuspended in Buffer A. The protein was subsequently purified as BbFpn, but with the addition of a second wash on the Ni-NTA column with three column volumes of 25 mM imidazole pH 8, 300 mM NaCl, and 0.03% DDM, and with 0.03% DDM instead of LMNG in the elution and SEC purification. The SEC eluted protein was concentrated to ~10 mg/ml as determined by the BCA assay (Thermo Fisher Scientific) method and stored at −80 °C until further use.
Protein samples were purified as above and diluted to 0.03 mM (1.5 mg/ml) for ITC experiments. The buffer used for ITC was 20 mM Tris pH 8, 50 mM NaCl, and 0.004% LMNG. The buffer was degassed in vacuum (2 h) and pretreated with Chelex-100 (Bio-Rad) to remove residual calcium and/or metal ions bound with moderate affinity. This was done by first washing the Chelex-100 beads with water and then running the dialysis buffer through the beads in a gravity flow column. The samples were subsequently dialyzed overnight against their respective gel filtration buffers. ITC measurements were obtained by using a MicroCal iTC 200 calorimeter (GE Healthcare) and MicroCal PEAQ-ITC (Malvern Instruments) at 20 °C. For calcium and strontium binding measurements, a 2 mM solution was prepared in the protein buffer using a standard 1 M stock solution. […]. For MgCl2 and KCl measurements, a 2–5 mM solution was prepared in the respective buffer.
In each experiment, the protein solution was loaded into the sample cell, and the ligand solution was loaded in the syringe. […] To obtain the effective heat of binding, the heat of dilution, measured by injecting the ligand solution alone into buffer, was subtracted prior to data analysis. The data were fitted using the ‘one binding site’ model using the MicroCal PEAQ-ITC Analysis Software (Malvern Instruments), and the apparent molar reaction […] (ΔH°), entropy (ΔS°), dissociation constant (Kd), and stoichiometry of binding (N) were determined. […]

[4] = Supplementary Figs. 5 and 9, one experiment
[5] = Supplementary Fig. 7a, one experiment

## [Ca+2] [Ca^2+, calcium]
[1]; 20 °C, 20 mM Tris pH 8, 50 mM NaCl, 0.004% LMNG, read-out: Kd (ITC)
  Kd: 1.2e-05 ± 4e-07 M
[1]; [4]
  -TΔS, ITC: -15.3 kcal/mol
  N (sites), ITC: 0.691 ± 8.5e-3
  ΔG, ITC: -6.61 kcal/mol
  ΔH, ITC: 8.68 ± 0.155 kcal/mol
[1]; Supplementary Figs. 5 and 9, one experiment, read-out: KD (M), ITC
  Kd: 1.18e-05 M
[2]
  Binding to Q84E BbFpn by ITC (in words): no Ca^2+ or Sr^2+ binding
[3]; [5]
  -TΔS, ITC: -9.95 kcal/mol
  N (sites), ITC: 0.804 ± 4.8e-2
  ΔG, ITC: -7.47 kcal/mol
  ΔH, ITC: 2.49 ± 0.210 kcal/mol
[3]; thermostabilized mouse Fpn-C2, read-out: Kd (ITC)
  Kd: ~3 µM and 2.7 µM
